What is called IC50 is the concentration that gives 50% inhibition.

Bounds are passed on as bounds.

The results in this text go back to article PMC10254233, “Synthesis and In Vitro Biological Evaluation of p-Carborane-Based Di-tert-butylphenol Analogs” (Molecules, 2023).

Data set [1] has as its system HT-29 colorectal carcinoma. The data set can be described thus: Cell viability, MTT assay, HT-29. The format is cell-based, human. The conditions noted are these: 72 h, mean ± SD. As to the method: (§1) Five human cell lines (A375 melanoma, A549 lung adenocarcinoma, HCT116 and HT29 colorectal carcinoma, MDA-MB-231 triple-negative breast adenocarcinoma) were used to study the antitumor effects of the di-tert-butylphenols and their respective carborane analogs. All selected cell lines were derived from inflammation-associated tumors.
(§2) After the incubation period, the supernatant was discarded from the wells, and the cells were washed two times with 200 µL of PBS. Next, MTT solution at a final concentration of 0.5 mg/mL was added and incubated at 37 °C until purple formazan crystals were formed (30 min to one hour). After incubation, the dye was discarded. In order to dissolve the formed formazan crystals DMSO was added, and the absorbance was measured at λmax = 540 nm, with the reference/background wavelength of 670 nm. All results are expressed as a percentage of the control value which was arbitrary set to 100%. After 72 h treatment, cells were washed with 200 µL of PBS and fixed with 4% paraformaldehyde (PFA) for 15 min at room temperature (RT). Next, cells were stained with 1% CV solution. After 20 min, cells were washed in tap water and dried on air. Dye was dissolved in 33% acetic acid and the absorbance was measured at λmax = 540 nm, with the reference/background wavelength of 670 nm. Results were expressed as a percentage of the control value which was arbitrary set to 100%.
(§3) 1. General methods, materials, and procedures
(§4) 1.1.1. Reagents and cells
(§5) Reagents and cells were obtained from following manufacturers: Capricorn Scientific GmbH (Hessen, Germany) – Culture medium RPMI-1640, Dulbecco's Modified Eagle Medium (DMEM), and fetal bovine serum (FBS). Serva (Heidelberg, Germany) – Paraformaldehyde (PFA). Sigma (St. Louis, MO, USA) – Ethylenediaminetetraacetic acid (EDTA), Dimethyl sulfoxide (DMSO), chloroquine, CV, Triton X-100, RNase, PI, PBS, 3-MA, CFSE, and fluorescent mounting medium. AppliChem (MO, USA) –MTT. Thermo Fisher Scientific (Waltham, MA, USA) – DHR. R&D Systems (Minneapolis, MN, USA) – ApoStat. BD (Pharmingen, San Diego, SAD) – Annexin V-FITC (AnnV). Biological Industries (Cromwell, CT, USA) – Penicillin Streptomycin solution. American Type Culture Collection (ATCC, Manassas, Virginia, USA) – Human lung carcinoma (A549), human breast adenocarcinoma (MDA-MB-231), human colorectal ade-nocarcinoma (HT-29), human colorectal carcinoma (HCT116) and human melanoma (A375).
(§6) Cell lines (A375, HCT116, HT-29 and MDA-MB-231) were cultivated in HEPES-buffered RPMI-1640 medium while A549 cell line was cultivated in Dulbecco's Modified Eagle Medium (DMEM) which were previously supplemented with 10% heat-inactivated FBS, penicillin (100 units/mL), and streptomycin (100 μg/mL). All cells were kept at 37 °C in a humidified atmosphere with 5% CO2. For viability determi-nation cells were seeded at following densities in 96-well plates: 4 x 10^3 cells/well (A375, HT-29 and MDA-MB-231), 5 x 10^3 cells/well (HCT116), and 3 x 10^3 cells/well (A549). […]
(§7) Afterwards, cells were washed with phosphate-buffered saline (PBS) and stained with AnnV (15 μg/mL) and PI (15 μg/mL). After 15 min incubation at room temperature (RT) protected from light the cells were resuspended in AnnV-binding buffer and analysed using flow cytom-etry. HCT116 cells were incubated with pan-caspase inhibitor Apostat for 30 min at 37 °C to determine whether detected apoptosis was mediated by caspase activation. Afterwards, cells were washed with PBS and analyzed using flow cytometry. HCT116 cells were stained with 1 µg/mL of AO solution for 15 min at 37 °C to detect the presence of autophagic cell death. Afterwards cells were washed with PBS, resuspended and analyzed by flow cytometry (CyFlow® Space Partec using the PartecFloMax® software
For orientation: Tetrazolium dyes change colour on reduction, which living cells bring about.

Data set [2] relates to MDA-MB-231 triple-negative breast adenocarcinoma. Put plainly: Cell viability, MTT assay, MDA-MB-231. The data set is classed as cell-based, human. The following applies: 72 h, mean ± SD. On the procedure: as §1, §2, §3, §4, §5, §6, §7
A short description of data set [3]: NMR spectroscopic stability study in aqueous DMSO-d6. The format is physicochemical. The following applies: room temperature, in air, four weeks, 1H and 11B{1H} NMR. The text has this: Solubility and chemical stability in organic solvents, such as aqueous dimethyl sulfoxide (DMSO), are crucial for biological investigations. Therefore, the stability of the p-carborane-containing compounds R-830-Cb, S-2474-Cb, KME-4-Cb, and E-5110-Cb in aqueous DMSO-d6 at room temperature in air was studied by ^1H- and ^11B{^1H}-NMR spectroscopy over four weeks and confirmed that all compounds are stable (see Supplementary Materials, Figure S24).

Data set [4] is described as follows: Lipophilicity logD7.4 by HPLC. The conditions noted are these: pH 7.4, HPLC method.
The target in the next data set is T1, 5-LO (Homo sapiens, UniProt P09917).
T1 sequence (P09917 1-674): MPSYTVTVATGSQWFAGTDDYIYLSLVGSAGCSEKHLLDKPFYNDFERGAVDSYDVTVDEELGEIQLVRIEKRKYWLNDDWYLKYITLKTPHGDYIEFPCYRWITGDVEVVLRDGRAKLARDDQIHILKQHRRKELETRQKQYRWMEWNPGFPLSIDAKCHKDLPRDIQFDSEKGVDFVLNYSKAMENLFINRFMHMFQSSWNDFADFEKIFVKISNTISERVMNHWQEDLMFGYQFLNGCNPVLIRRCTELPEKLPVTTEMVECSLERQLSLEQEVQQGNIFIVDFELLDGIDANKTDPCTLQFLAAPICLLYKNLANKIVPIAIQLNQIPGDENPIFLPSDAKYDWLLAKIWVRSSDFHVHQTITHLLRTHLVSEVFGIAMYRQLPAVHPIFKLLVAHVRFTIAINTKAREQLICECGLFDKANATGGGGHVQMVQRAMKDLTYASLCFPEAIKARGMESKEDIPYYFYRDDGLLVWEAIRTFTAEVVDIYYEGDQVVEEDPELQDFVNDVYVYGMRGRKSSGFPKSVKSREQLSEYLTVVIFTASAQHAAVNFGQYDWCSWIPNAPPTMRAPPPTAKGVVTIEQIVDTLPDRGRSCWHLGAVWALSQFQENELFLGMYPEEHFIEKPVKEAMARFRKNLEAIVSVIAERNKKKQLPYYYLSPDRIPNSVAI
Put plainly: 5-LO product formation in intact PMNL. The following applies: read-out: IC50 inhibition of 5-LO product formation in intact PMNL; intact PMNL, A23187 + arachidonic acid, mean of at least three experiments.

Procedure for 5-LO: After 10 min at 37 °C, the reaction was stopped by addition of ice-cold methanol (1 mL). HCl (30 μL, 1 M), prostaglandin B1 (200 ng) and PBS (500 μL) were added and the formed metabolites were extracted and analyzed by HPLC as described previously [96].

Take “1-Hydroxy-12-(thiophen-2′-carbonyl)-1,12-dicarba-closo-dodecaborane(12) [Compound R-830-Cb]”: the IC50 in data set [1] was 65.6 ± 5.3 µM; in data set [2] it was 46.5 ± 0.1 µM; at 5-LO, 650 nM. The “stability in aqueous DMSO-d6” value in data set [3] is given as “stable”. Further, in data set [4], the “logD7.4, HPLC” value is listed as 2.37.

In the case of “(3E)-1-Hydroxy-12-(methylene-[1′-methoxypyrrolidine-2′-one])-1,12-dicarba-closo-dodecaborane(12) [Compound E-5110-Cb]”, the half-inhibitory concentration (IC50) came to 120 ± 9.7 µM in data set [1] and 220 nM at 5-LO. For the same substance, the “stability in aqueous DMSO-d6” value in data set [3] is “stable”. In data set [4], the “logD7.4, HPLC” value is on record as 1.50.

With “(3E)-1-Hydroxy-12-(methylene-[2′-ethylisothiazolidine-1′,1′-dioxide])-1,12-dicarba-closo-dodecaborane(12) [Compound S-2474-Cb]”, the half-inhibitory concentration (IC50) in data set [1] was 81.8 ± 6.1 µM; in data set [2] it was above 200 µM; on 5-LO, below 30 nM. Further, the “stability in aqueous DMSO-d6” value in data set [3] is recorded as “stable”. For the same substance, the “logD7.4, HPLC” value in data set [4] turned out to be 1.88.

On to “(3E)-1-Hydroxy-12-(methylene-[dihydrofurane-2′(3H)-one])-1,12-dicarba-closo-dodecaborane(12) [KME-4-Cb]”, for which the IC50 in data set [1] was 139 ± 5.4 µM; in data set [2] it was 120 ± 3.9 µM; at 5-LO it was 70 nM. For the same substance, the “stability in aqueous DMSO-d6” value in data set [3] is given as “stable”. In addition, in data set [4], the “logD7.4, HPLC” value came out at 1.87.
